Results published in patent publication US6369106B1 (Yissum Research Development Company of the Hebrew …, priority 1996, dated 2002).

Experiments:
[1] = tested on: Neuroblastoma SHSY5Y (NB) cells; assay: Protection from oxidative stress in vitro, neutral red survival assay; assay type: cell-based; conditions: compound at 0.1 mM, 6-OHDA 0.1-0.25 mM, MPP+ 0.5-2 mM, 24 hours
Description: Protection from oxidative stress in vitro: Neuroblastoma SHSY5Y (NB) cells were maintained in Dulbeco's Modified Eagle's Medium (DMEM), supplemented with 8% FCS and 8% horse serum, penicillin (25 μg/ml), streptomycin (25 μg/ml), 2 mM L-glutamine and 400 μg/ml G418 (Gibco/BRL). For protection experiments cells were subcultured (in 2% serum) to poly-L-lysine-coated 96-well microtiter plates (Nunc), 100 μl of 5×10^5 cells/ml, CEA was applied to the cells in each well and 4 hours later DA, L-dopa (levodopa), 6-OHDA and MPP+ were added for 24 hours.
Survival was assayed by adding neutral red (0.34%, Sigma) to cells in DCCM-1 medium (0.1 ml/well, Bet-Haemek) and incubation for 2 hour at 37° C. The cells were then washed with cold PBS containing 10 mM MgCl2 and the dye was dissolved in 50% ethanol in 50% Somerson buffer (70 mM sodium citrate, 30 mM citric acid, 0.1 N HCl). ELISA reader (590 nm) was used to measure the remaining color intensity.

[2] = Crossing the blood-brain-barrier: compound level in brain extracts by HPLC after IP injection; assay type: in vivo, C57BL/6J mice; conditions: mice, IP 0.25-4 mg, 15 min after injection
Description: Detection of compound j (referred to in this Example also as CEA) was established using high performance liquid chromatography (HPLC). To this end, CEA was treated with a fluorescent thiolyte reagent (monobromobimane reagent) and analyzed on an HPLC column.
Crossing the blood-brain-barrier: In vivo experiments were carried out on C57BL/6J mice (15 grams) injected IP with compound J. After incubation (15 min, 60 min or 4 hours) the mice were anesthetized with ether and blood samples were drawn. Then mice underwent perfusion with 50 ml of saline, injected into the right ventricle. The levels of compound I in the brain and in the plasma were detected by selective fluorescent labeling using high performance liquid chromatography (HPLC).
Increasing amounts of compound J were injected IP and 15 min later, mice were perfused with saline and compound J levels in the brain extracts were determined by HPLC chromatography (FIG. 5b), as compared to a control, pure, uninjected compound J (FIG. 5a).

GSH levels = assay: Brain GSH levels after IP injection (HPLC); assay type: in vivo, C57BL/6J mice

- Compound level in the brain [2]: concentration-dependent increase
SMILES: CC(=O)NC(CS)C(N)=O (stereo not shown) [compound J]
- Protection of NB cells against toxicity (>50%) of DA, L-dopa, 6-OHDA and MPP+ [1]: protect the cells
- Protection of NB cells against toxicity (>50%) of DA, L-dopa, 6-OHDA and MPP+ ([1]; listed as Compound J): protect NB cells
- Endogenous GSH levels in mice brain, effect in words (GSH levels): increases endogenous GSH levels
